Assay results: US6958151B2 (priority 2002, dated 2005)

How the values were obtained:
POW virus = system: POW virus; set-up: species or system NIH Swiss mice; details: mouse, in vivo
[1] = iv via tail vein, five consecutive days, 16.7 μg/day, 10-day observation
WN-E-D3 = WN-E-D3 (West Nile virus, UniProt Q9Q6P4); format: binding

| Sequence | chance for survival (POW virus) | onset of disease / illness (POW virus) | toxicity to mice [1] | selected by binding (phage display) (WN-E-D3) |
| --- | --- | --- | --- | --- |
| RCCHPQCKEGKKCR (SEQ ID NO:157) [MP-100] | increases their chance for survival | delay in onset of disease | neither of the agents is toxic | – |
| RCCREPCKEGRKCR [MP-106] | – | – | – | selected by binding to WN-E-D3 |
| RCCTLRCKEGKKCR [MP-108] | – | – | – | selected by binding to WN-E-D3 |
| RCCVSVCKEGKKCR [MP-107] | – | – | – | selected by binding to WN-E-D3 |
